Source: US20250381277A1, “COMPOSITIONS AND METHODS FOR TREATMENT OF NEUROLOGICAL DISORDERS” (Dana-Farber Cancer Institute, Inc., priority 2022, published 2025)
“Also recorded” adds a separate entry of the source.

Assays:
[1] = tested on: CD11c^+ microglia of 9-mo old 5XFAD and OPN-KO.5XFAD mice; experiment: In vitro analysis of OPN-dependent inhibition of TREM2-lysosomal phagocytic pathway and Aβ degradation; format: cell-based, mouse; details: rmOPN 12.5 μg/ml, anti-OPN Ab 10 μg/ml
Method: (a) Protocol of in vitro analysis of OPN-dependent inhibition of TREM2-lysosomal phagocytic pathway in 9-mo old 5XFAD and OPN-KO.5XFAD mice. […] (d) The MFI of FAM-Aβ 1-42 after 1 h's incubation was determined by flow cytometry in lysosomes of CD11c^+ microglia (CD11c^+CD68^+) and defined as Aβ MFI1h. MFI of retained FAM-Aβ in lysosomes of CD11c^+ microglia (CD11c^+CD68^+) 24 h after FAM-Aβ1-42 withdrawal was determined and defined as Aβ MFI24h. […] All data are presented as mean±s.e.m.
To test the impact of OPN on TREM2-lysosome activation and AR degradation, microglia enriched by anti-CD11b microbeads (purity >95%, Miltenyi) from 9-mo old 5XFAD and OPN-KO.5XFAD mice were seeded into 12-well plates at 3×10^5 cells/well in conventional microglia culture medium (DMEM-F12 with 10% fetal bovine serum+10% penicillin/streptomycin+10 ng/ml recombinant mouse M-CSF). Microglia were then pre-incubated with anti-OPN Ab (10 μg/ml) for 1 h followed by the incubation with rmOPN ([…]) overnight. Then FAM-labeled Aβ1-42 peptide (1 μM) was added into culture for 1 h. Mean fluorescence intensity (MFI) of FAM-Aβ1-42 in lysosomes of CD11c^+ microglia (CD11c^+CD68^+) after 1 h's incubation was determined by flow cytometry and defined as Aβ MFI1h. FAM-Aβ1-42 was then withdrawn, and cells were cultured for 24 h in the presence or absence with anti-OPN Ab (10 μg/ml) and/or rmOPN (12.5 μg/ml) before analysis of CD11c^+ microglial expression of TREM2, CD68 and MFI of retained FAM-Aβ1-42 in CD11c^+CD68^+ microglia (defined as Aβ MFI24h) by flow cytometry. Aβ degradation rate was calculated as (Aβ MFI1h−Aβ MFI24h)/Aβ MFI1h.

5XFAD mice = experiment: Weekly intravenous or intranasal cyclic RGD (Cilengitide) administration to 5XFAD mice: microglial proinflammatory responses; format: in vivo, mouse; details: vs saline
Method: (A) Schematic outline of cyclic RGD (Cilengitide) administration. Weekly intravenous injection (25 mg/kg) or intranasal delivery (10 mg/kg) of Cilengitide or vehicle control (saline) into 5XFAD mice starting at 6-mo of age for 1 or 2 months. Microglial proinflammatory responses were analyzed after 1-mo or 2-mo treatment. […] IV injection of Cilengitide for 1 month reduced the percentage of CD11c^+ microglia by 50% and decreased CD11c^+ microglial TNF-α production by ˜50% in 5XFAD mice (n=3). […]. […] IV injection of Cilengitide for 2 months reduced the percentage of CD11c+ microglia by 60% and decreased CD11c+ microglial TNF-α production by 55% in 5XFAD mice compared with vehicle (saline) treated control mice (n=3). *p<0.05, **p<0.01, ***p<0.001.
Weekly administration of cyclic RGD (Cilengitide) was given intravenously or intranasally to 6-mo old mice, continuing for 1 or 2 months. Microglial proinflammatory responses and Aβ plaque pathology were analyzed after 1-mo or 2-mo of treatment (FIG. 43A).

[2] = intranasal 10 mg/kg weekly, 1 month
[3] = intranasal 10 mg/kg weekly, 2 months

Molecule	Aβ degradation rate [(Aβ MFI1h−Aβ MFI24h)/Aβ MFI1h] in lysosomes of CD11c^+ microglia ([1]; FAM-Aβ1-42 1 μM)	CD68 expression in CD11c^+ microglia ([1]; OPN-KO.5XFAD microglia)	TREM2 expression in CD11c^+ microglia ([1]; OPN-KO.5XFAD microglia)	decrease of CD11c^+ microglial TNF-α production (5XFAD mice; IV 25 mg/kg weekly, 1 month) [%]	reduction of percentage of CD11c^+ microglia (5XFAD mice; IV 25 mg/kg weekly, 1 month) [%]	decrease of CD11c+ microglial TNF-α production (5XFAD mice; IV 25 mg/kg weekly, 2 months) [%]	reduction of percentage of CD11c+ microglia (5XFAD mice; IV 25 mg/kg weekly, 2 months) [%]	CD11c^+ microglia (in words) (5XFAD mice; [2])	reduction of TNF-α production by CD11c^+ microglia (5XFAD mice; [2]) [%]	decrease of percentage of CD11c+ microglia (5XFAD mice; [3]) [%]	reduction of TNF-α expression by CD11c+ microglia (5XFAD mice; [3]) [%]
rmOPN: recombinant mouse OPN (osteopontin)	substantial reduction of Aβ degradation; also recorded: significantly reduced the Aβ degradation rate	reduced expression of CD68; also recorded: significantly reduced	sharply inhibited; also recorded: sharply reduced								
CC(C)[C@H]1C(=O)N[C@@H](CCCN=C(N)N)C(=O)NCC(=O)N[C@@H](CC(=O)O)C(=O)N[C@H](Cc2ccccc2)C(=O)N1C [Cilengitide]				~50	50	55	60	decrease; also recorded: decreased tendency	~35	35	~45
